{
  "source": "paper PMC5006034",
  "about": "(Scientific Reports, 2016)",
  "target": "T1, hP2X2R (Homo sapiens, UniProt Q9UBL9)",
  "T1 construct": "gene P2RX2",
  "T1 sequence (Q9UBL9 1-471)": "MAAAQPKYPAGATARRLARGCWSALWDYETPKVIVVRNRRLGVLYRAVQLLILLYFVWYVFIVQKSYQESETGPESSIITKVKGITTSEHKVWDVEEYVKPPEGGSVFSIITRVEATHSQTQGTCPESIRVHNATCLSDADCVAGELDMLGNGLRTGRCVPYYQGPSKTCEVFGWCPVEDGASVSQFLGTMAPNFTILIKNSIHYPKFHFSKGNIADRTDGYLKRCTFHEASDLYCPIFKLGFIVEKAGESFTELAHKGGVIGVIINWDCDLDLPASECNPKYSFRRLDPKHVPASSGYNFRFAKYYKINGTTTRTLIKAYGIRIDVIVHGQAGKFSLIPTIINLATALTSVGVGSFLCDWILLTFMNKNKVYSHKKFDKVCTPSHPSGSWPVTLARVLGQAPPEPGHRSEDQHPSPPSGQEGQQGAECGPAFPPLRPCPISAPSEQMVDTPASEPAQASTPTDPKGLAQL",
  "experiment": "Ca2+ imaging in cells expressing hP2X2R (outsourced selectivity assay)",
  "format": "cell-based",
  "note": "pIC50: −log10 of the molar value.",
  "data": [
    {"compound": "O=C1CC(=O)N(c2cccc(-c3noc(=S)[nH]3)c2)c2ccc3ccccc3c2N1", "note": "[NP-1815-PX, 5-[3-(5-thioxo-4H-[1,2,4]oxadiazol-3-yl)phenyl]-1H-naphtho[1,2-b][1,4]diazepine-2,4(3H,5H)-dione]", "values": [
      {"measurement": "pIC50", "result": 5.14}
    ]}
  ]
}
